# Values quoted from earlier work, collected in article PMC3734799 (ChemMedChem, 2011).
# Target: YopH (Yersinia pestis, UniProt O68720)
# Sequence (O68720 164-468 limits assumed): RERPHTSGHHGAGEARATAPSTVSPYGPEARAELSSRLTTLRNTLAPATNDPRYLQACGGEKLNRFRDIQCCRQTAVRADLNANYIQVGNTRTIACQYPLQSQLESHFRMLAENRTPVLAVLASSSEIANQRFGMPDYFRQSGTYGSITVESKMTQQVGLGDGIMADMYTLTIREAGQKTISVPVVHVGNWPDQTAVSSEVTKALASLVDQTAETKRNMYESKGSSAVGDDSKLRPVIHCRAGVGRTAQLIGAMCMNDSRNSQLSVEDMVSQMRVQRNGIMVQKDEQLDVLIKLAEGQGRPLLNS
structure (smiles),measurement,value
"O=[N+]([O-])c1ccc(OP(=O)(O)O)cc1-c1ccccc1 [compound 1, 6-nitro-[1,1'-biphenyl]-3-yl dihydrogen phosphate]",Km,80 µM
